According to patent EP0778025A1, “Use of 8,9-dehydroestrone for the manufacture of a medicament for the treatment of diseases caused by free radicals” (AMERICAN HOME PRODUCTS CORPORATION, priority 1995, dated 1997):
Where two headings read alike, the source gives them in different places.

What was measured:
[1] = test system: porcine aortic endothelial cells (PAEC); assay: MTT cytotoxicity assay of porcine aortic endothelial cells exposed to Cu++-treated LDL; assay type: cell-based; conditions: 25 ug/ml LDL Cu++ treated in presence of compound (2.5µM stated for 8,9-dehydroestrone), 24 hr incubation, 2% viable without compound
Protocol: In the second test procedure, porcine aortic endothelial cells (PAEC) were exposed to LDL that had been modified as above, by exposure to Cu++ in the presence and absence of 8,9-dehydroestrone. […] Subsequent to a 24 hr incubation of the cells with the treated LDL, an MTT assay was performed to assess cytotoxicity (Hansen MB, J Immu Methods 119:203-210 (1989)). This test procedure assesses the percent of cells that are viable (live) in a given assay. In the assay, following exposure to 25 ug/ml LDL oxidized in the absence of compound, only 2% of the cells remained viable. In contrast, the percent live cells following exposure to LDL Cu++ treated in the presence of 8,9-dehydroestrone (2.5µM) was 100% or greater.

[2] = test system: low density lipoprotein (LDL); assay: Inhibition of Cu++ mediated LDL oxidation (TBARS method)
[3] = test system: J774 macrophages; assay: Binding of Cu++-treated 125I-LDL to J774 macrophages (scavenger lipoprotein receptors); assay type: cell-based; conditions: Mus musculus
From the text: In the first test procedure, radiolabeled-LDL (^125I-LDL) (McFarlane AS, In: Munro HN, Allison JB, eds. Mammalian Protein metabolism, Vol. 1. New York: Academic Press 297-341 (1964)) was modified by exposure to Cu++ in the presence and absence of 8,9-dehydroestrone. Next, J774 macrophages, which express scavenger lipoprotein receptors which bind oxidatively modified-LDL, were exposed to the treated ^125I-LDL. […] By comparison, the same concentrations of estrone reduced the binding of LDL that was oxidized by 39% and 0%, respectively. Since binding and metabolism of oxidized LDL by macrophages is though to contribute strongly to the development of foam cells and therefore, atherosclerotic plaque, this effect of reducing LDL oxidation and subsequent binding to scavenger receptors is thought to be of significant benefit.

[4] = J774, read-out: reduction of binding of the LDL that was oxidized

| SMILES | percent live cells [1] | IC50 ([2]; Cu++ mediated LDL oxidation, TBARS) | inhibition of LDL oxidation ([2]; maximal inhibition, stated for the test procedure in general (Cu++ or endothelial cell induced)) | inhibition at 0.25 µM [3, 4] | inhibition at 2.5 µM [3, 4] | inhibition at 0.25 µM ([3]; 0.25 µM compound present during Cu++ oxidation of 125I-LDL, J774 macrophages, read-out: reduction of binding of the LDL that was oxidized) | inhibition at 2.5 µM ([3]; 2.5 µM compound present during Cu++ oxidation of 125I-LDL, J774 macrophages, read-out: reduction of binding of the LDL that was oxidized) |
| --- | --- | --- | --- | --- | --- | --- | --- |
| C[C@]12CCC3=C(CCc4cc(O)ccc43)[C@@H]1CCC2=O [8,9-dehydroestrone] | ≥ 100% | 220 nM | ≤ 100% | 56% | 72% |  |  |
| C[C@]12CC[C@H]3C(=CCc4cc(O)ccc43)[C@@H]1CCC2=O [Equilin, reference compound] | 4% |  |  |  |  |  |  |
| C[C@]12CC[C@@H]3c4ccc(O)cc4CC[C@H]3[C@@H]1CCC2=O [estrone] |  |  |  |  |  | 0% | 39% |
